Article PMC7284870, “Antimicrobial Peptides from Rat-Tailed Maggots of the Drone Fly Eristalis tenax Show Potent Activity against Multidrug-Resistant Gram-Negative Bacteria” (Microorganisms, 2020)
Converted amounts (≈) assume the structure as drawn. Read-outs that look alike come from different tables or passages of the source. Residues, ends and D or L forms follow the SMILES beside them. No end group written: not given here.

Assays:
[1] = system: Micrococus luteus DSM 20030; format: cell-based, Micrococcus luteus; details: CAMB, 18 h, 37 °C, n = 4
Method: (§1) The strains that were used in this study (Table 2 and Table S1) were cultivated at 37 °C in cation-adjusted Mueller–Hinton broth (CAMB) in Erlenmeyer flasks, or on the same medium with agar in Petri dishes. Exceptionally, Mycobacterium smegmatis was cultivated at 37 °C in brain heart infusion (BHI) medium that was supplemented with 1% Tween-80 in Erlenmeyer flasks, or on the same medium lacking detergent but with agar in Petri dishes. Strains listed with Robert Koch Institute (RKI) strain numbers are clinical isolates from the RKI strain collection originating from hospitalized patients in Germany. The remaining strains originated from the Sanofi strain collection and they were originally purchased from the American Type Culture Collection or the German Collection of Microorganisms and Cell Cultures. Meropenem/colistin-resistant strains were maintained, as described above, with the appropriate antibiotic added at levels below the minimal inhibitory concentration (MIC).
The MIC values were determined in 384-well microtiter plates with an assay volume of 20 µL. […] The growth of M. smegmatis was measured using the BacTiter-Glo luminescence test system (Promega, Madison, WI, USA). The growth of the other species was determined by visual inspection of the microtiter plate and turbidimetry based on the optical density at 600 nm (OD600). […]

E. coli ATCC 25922 = system: E. coli ATCC 25922
Method: as §1
The MIC values were determined in 384-well microtiter plates with an assay volume of 20 µL. Immediately before each assay, the cultures of test organisms (bacteria grown for 18 h, Candida albicans and M. smegmatis grown for 48 h) were diluted with the appropriate medium to a density of 1 × 10^6 cells/mL (C. albicans), 1 × 10^5 cells/mL (M. smegmatis) or 5 × 10^5 cells per mL (other species). The peptides were dissolved in sterile water at a concentration of 10.24 mg/mL and a 1:2 dilution series was prepared in a 384-well microtiter plate to achieve the concentration range 10,240–0.3125 µg/mL in a volume of 50 µL. We transferred 2-µL aliquots from this dilution series to new 384-well microtiter plates while using a CyBio-Well 384-channel automated pipettor (Analytic Jena, Jena, Germany) and added 18 µL of the diluted suspension of each test species using a Viafill reagent dispenser (Integra), thus reducing the final peptide concentration 10-fold to the range 1024–0.03125 µg/mL. The cells were incubated at 37 °C and 85% relative humidity, shaking at 180 rpm for 48 h (M. smegmatis), 24 h (C. albicans) or 18 h (other species). The growth of M. smegmatis was measured using the BacTiter-Glo luminescence test system (Promega, Madison, WI, USA). The growth of the other species was determined by visual inspection of the microtiter plate and turbidimetry based on the optical density at 600 nm (OD600). […] We supplemented the test medium with either 150 mM NaCl or 1.25 mM CaCl2 to represent monovalent and divalent cations to simulate physiological conditions.

[2] = system: Listeria monocytogenes DSM 20600; format: cell-based; details: CAMB, 18 h, 37 °C, n = 4
Method: as §1
(§2) The MIC values were determined in 384-well microtiter plates with an assay volume of 20 µL. Immediately before each assay, the cultures of test organisms (bacteria grown for 18 h, Candida albicans and M. smegmatis grown for 48 h) were diluted with the appropriate medium to a density of 1 × 10^6 cells/mL (C. albicans), 1 × 10^5 cells/mL (M. smegmatis) or 5 × 10^5 cells per mL (other species). […] We transferred 2-µL aliquots from this dilution series to new 384-well microtiter plates while using a CyBio-Well 384-channel automated pipettor (Analytic Jena, Jena, Germany) and added 18 µL of the diluted suspension of each test species using a Viafill reagent dispenser (Integra), thus reducing the final peptide concentration 10-fold to the range 1024–0.03125 µg/mL. […] The growth of M. smegmatis was measured using the BacTiter-Glo luminescence test system (Promega, Madison, WI, USA). The growth of the other species was determined by visual inspection of the microtiter plate and turbidimetry based on the optical density at 600 nm (OD600). The MIC was defined as the peptide concentration at which no bacterial growth was observed. We supplemented the test medium with either 150 mM NaCl or 1.25 mM CaCl2 to represent monovalent and divalent cations to simulate physiological conditions.

[3] = system: Proteus mirabilis DSM 4479; format: cell-based; details: CAMB, 18 h, 37 °C, n = 4
Method: as §1, §2

[4] = system: Klebsiella pneumoniae DSM 30104; format: cell-based
Method: as §1, §2

[5] = system: Enterococcus faecium DSM 17050; format: cell-based; details: CAMB, 18 h, 37 °C, n = 4
Method: as §1, §2

[6] = system: Pseudomonas aeruginosa ATCC 27853; format: cell-based
Method: as §1, §2

[7] = system: Acinetobacter baumannii ATCC 19606; format: cell-based
Method: as §1, §2

[8] = system: Mycobacterium smegmatis ATCC 607; format: cell-based; details: BHI, 48 h, 37 °C, BacTiter-Glo, n = 4
Method: as §1, §2

[9] = system: Staphylococcus epidermidis ATCC 35984; format: cell-based; details: CAMB, 18 h, 37 °C, n = 4
Method: as §1, §2

[10] = system: Staphylococcus aureus ATCC 25923; format: cell-based
Method: as §1, §2

Canida albicans FH2173 = format: cell-based, Candida albicans; details: CAMB, 24 h, 37 °C, n = 4
Method: as §1, §2

S. aureus ATCC 33592 = format: cell-based, Staphylococcus aureus
Method: as §1, §2

HepG2 cells = test: Cytotoxicity (ATP quantification and neutral red uptake)
Method: The cytotoxicity of the AMPs was determined in 96-well microtiter plates with an assay volume of 200 µL. The peptides were dissolved in PBS and a 1:2 dilution series in DMEM-F12 medium (supplemented with 1% nonessential amino acids, 1% sodium pyruvate, and 5% heat-inactivated fetal calf serum) was prepared in nine steps to produce test concentrations of 400, 200, 100, […], 12.5, 6.25, 3.13, and 1.56 μM (1655–6.46 µg/mL for EtCec1-a, 1713–6.68 µg/mL for EtCec2-a, 1622–6.33 µg/mL for EtCec3-a, 2661–10.38 µg/mL for EtDip). Stocks of the mycoplasma-free HepG2 cell line HB-8065 (ATCC) stored in liquid nitrogen were seeded at a density of 20,000 cells/well into 96-well microplates in 100 μL DMEM-F12 supplemented as above. After incubation overnight at 37 ± 1 °C in a 5% CO2 atmosphere, 100 μL of the test solution was added per well in six replicates. Ketoconazole was used as a positive control and PBS as a negative control. The plates were incubated for 24 h, as above, and the cell viability was assessed using the luminescent CellTiter-Glo ATP monitoring kit (Promega) to determine the quantity of ATP.
HepG2 cells and peptides were prepared as described above, and cell viability was assessed based on the ability of lysosomes to store the dye neutral red (Sigma–Aldrich, ST. Louis, MO, USA). The cells were incubated for 3 h with a neutral red solution, washed twice, and lysed. After complete lysis, the quantity of neutral red was determined by measuring the absorption at 540 nm while using a Tecan Genios Pro plate reader.

E. coli RKI 131/08 = test: microbe, parasite or virus in culture; format: cell-based, Escherichia coli; details: RKI 131/08, 18 h
Method: as §1, §2

Escherichia coli D31 = format: cell-based; details: D31, 18 h
Method: as §1, §2

[11] = biological target: human ERG (hERG) potassium channel (Homo sapiens, UniProt Q12809); test: cell-based
human ERG (hERG) potassium channel, sequence (Q12809 whole entry): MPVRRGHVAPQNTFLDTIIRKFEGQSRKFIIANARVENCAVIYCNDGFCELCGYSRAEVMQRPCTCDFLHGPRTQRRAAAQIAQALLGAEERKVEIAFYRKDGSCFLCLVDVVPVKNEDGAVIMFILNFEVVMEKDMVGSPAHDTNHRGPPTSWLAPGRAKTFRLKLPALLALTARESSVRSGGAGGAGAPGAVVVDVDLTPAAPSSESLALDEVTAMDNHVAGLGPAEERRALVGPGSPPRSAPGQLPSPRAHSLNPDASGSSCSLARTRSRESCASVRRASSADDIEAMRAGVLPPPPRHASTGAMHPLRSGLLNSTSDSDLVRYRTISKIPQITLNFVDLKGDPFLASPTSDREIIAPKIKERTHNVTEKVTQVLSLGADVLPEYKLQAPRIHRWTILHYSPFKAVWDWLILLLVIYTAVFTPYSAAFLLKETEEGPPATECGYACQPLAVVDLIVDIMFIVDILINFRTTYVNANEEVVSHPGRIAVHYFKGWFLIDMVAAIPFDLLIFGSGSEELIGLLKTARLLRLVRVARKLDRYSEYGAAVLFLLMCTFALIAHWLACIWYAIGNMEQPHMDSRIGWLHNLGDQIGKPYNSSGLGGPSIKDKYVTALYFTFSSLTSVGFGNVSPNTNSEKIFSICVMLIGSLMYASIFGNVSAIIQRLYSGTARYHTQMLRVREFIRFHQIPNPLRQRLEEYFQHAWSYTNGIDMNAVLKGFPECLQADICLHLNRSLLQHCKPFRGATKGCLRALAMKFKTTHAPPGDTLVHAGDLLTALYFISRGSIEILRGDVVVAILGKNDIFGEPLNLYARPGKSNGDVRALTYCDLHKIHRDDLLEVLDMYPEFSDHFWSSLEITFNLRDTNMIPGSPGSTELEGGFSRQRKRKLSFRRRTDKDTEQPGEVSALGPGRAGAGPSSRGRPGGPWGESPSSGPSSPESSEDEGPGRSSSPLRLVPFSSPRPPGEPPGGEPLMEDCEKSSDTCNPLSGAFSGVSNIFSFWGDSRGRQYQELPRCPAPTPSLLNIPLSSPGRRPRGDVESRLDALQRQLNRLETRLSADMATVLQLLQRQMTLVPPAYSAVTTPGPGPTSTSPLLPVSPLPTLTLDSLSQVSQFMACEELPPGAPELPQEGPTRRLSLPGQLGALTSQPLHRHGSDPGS
Method: The interaction of the peptides with the human ERG (hERG) potassium channel was analyzed using the automated patch-clamp method. Chinese hamster ovary (CHO) hERG Duo cells constitutively expressing hERG (B’SYS) were diluted to 8 × 10^6 cells/mL in Ex-Cell CHO medium (Sigma–Aldrich) containing 25 mM HEPES, 100 U/mL penicillin-streptomycin, and 0.004% soybean trypsin inhibitor. The peptides were diluted from a stock concentration of 10 mM in DMSO to final concentrations of 0.12, 0.37, 1.1, 3.3, 10, and 30 μM (0.5–124 µg/mL for […], 0.51–128 µg/mL for EtCec2-a, 0.49–122 µg/mL for EtCec3-a, 0.8–200 µg/mL for EtDip) in extracellular medium (150 mM NaCl, 4 mM KCl, 2 mM CaCl2, 1 mM MgCl2, 10 mM HEPES, 10 mM glucose) containing 0.06% Pluronic F-68 and 0.3% residual DMSO. The response of hERG to each peptide was assessed while using a QPatch HTX station and QPlates (Sophion/Biolin Scientific, Ballerup, Denmark) by recording the tail current following channel repolarization. Half-maximal inhibitory concentrations (IC50) were determined from a series of six concentrations applied to the cells in ascending order. Terfenadine citrate was used as a positive control and extracellular medium as a negative control.

K. pneumoniae RKI 93/10 = test: microbe, parasite or virus in culture; format: cell-based, Klebsiella pneumoniae; details: RKI 93/10, 18 h
Method: as §1, §2

A. baumannii RKI 19/09 = test: microbe, parasite or virus in culture; format: cell-based, Acinetobacter baumannii; details: RKI 19/09, 18 h
Method: as §1, §2

CC(C)C[C@@H]1NC(=O)[C@@H]2CSSC[C@@H](C(=O)N[C@@H](CCCNC(=N)N)C(=O)N[C@@H](CCCCN)C(=O)O)NC(=O)[C@H](CC(N)=O)NC(=O)[C@@H]3CSSC[C@H](NC(=O)[C@H](C)NC(=O)[C@H](C)NC(=O)[C@H](CC(=O)O)NC(=O)[C@H](CCCCN)NC(=O)[C@H](C(C)C)NC(=O)[C@H](CC(N)=O)NC(=O)[C@H](CC(C)C)NC(=O)[C@H](Cc4ccccc4)NC(=O)[C@H](CO)NC(=O)[C@H](CC(C)C)NC(=O)[C@H](CC(C)C)NC(=O)[C@H](CC(=O)O)NC(=O)[C@@H](NC(=O)[C@@H](NC(=O)[C@H](C)N)[C@@H](C)O)CSSC[C@H](NC(=O)[C@H](Cc4ccc(O)cc4)NC(=O)CNC(=O)CNC(=O)[C@H](CCCNC(=N)N)NC(=O)[C@H](Cc4ccc(O)cc4)NC(=O)CNC(=O)[C@H](CCCCN)NC(=O)[C@H](C)NC1=O)C(=O)N[C@@H](CC(=O)O)C(=O)NCC(=O)N[C@@H](CCCNC(=N)N)C(=O)N[C@@H](CCCCN)C(=O)N[C@@H](C(C)C)C(=O)N3)C(=O)N[C@@H](C)C(=O)N[C@@H](C)C(=O)N[C@@H](Cc1c[nH]cn1)C(=O)N2 [EtDef4] (HELM PEPTIDE1{A.T.C.D.L.L.S.F.L.N.V.K.D.A.A.C.A.A.H.C.L.A.K.G.Y.R.G.G.Y.C.D.G.R.K.V.C.N.C.R.K}$PEPTIDE1,PEPTIDE1,3:R3-30:R3|PEPTIDE1,PEPTIDE1,16:R3-36:R3|PEPTIDE1,PEPTIDE1,20:R3-38:R3$$$V2.0)
MIC [1]: 16 µg/mL (≈ 3.73 µM) | MIC (E. coli ATCC 25922; CAMB + A000160918 [4 µg/mL]): 32 µg/mL | MIC (E. coli ATCC 25922; CAMB + A000161246 [4 µg/mL]): 128 µg/mL | MIC (E. coli ATCC 25922; CAMB + A000173031A [4 µg/mL]): 16 µg/mL | MIC (E. coli ATCC 25922; CAMB + A000173033A [4 µg/mL]): 256 µg/mL | MIC (E. coli ATCC 25922; CAMB + A000173039A [0.25 µg/mL]): 64 µg/mL | MIC (E. coli ATCC 25922; CAMB + A000173380A [4 µg/mL]): 256 µg/mL | MIC (E. coli ATCC 25922; CAMB + A000498432A [4 µg/mL]): >256 µg/mL | MIC (E. coli ATCC 25922; CAMB + A000499933A [0.0625 µg/mL]): >256 µg/mL | MIC (E. coli ATCC 25922; CAMB + A000500059A [0.0625 µg/mL]): >256 µg/mL | MIC (E. coli ATCC 25922; CAMB + A000500146A [0.0625 µg/mL]): 4 µg/mL | MIC (E. coli ATCC 25922; CAMB + A000501181A [4 µg/mL]): >256 µg/mL | MIC (E. coli ATCC 25922; CAMB + Colistin E1 [0.016 µg/mL]): 8 µg/mL | MIC (E. coli ATCC 25922; CAMB + Colistin E2 [0.016 µg/mL]): 2 µg/mL | MIC (E. coli ATCC 25922; CAMB + PMB [0.016 µg/mL]): 2 µg/mL | MIC (E. coli ATCC 25922; CAMB + PMBN [4 µg/mL]): >256 µg/mL | MIC (E. coli ATCC 25922; CAMB, 18 h, 37 °C, n = 4): >128 µg/mL | MIC (E. coli ATCC 25922; Table 6, CAMB): >256 µg/mL | MIC [2]: 16 µg/mL (≈ 3.73 µM) | MIC [3]: >128 µg/mL | MIC ([4]; CAMB, 18 h, 37 °C, n = 4): >128 µg/mL | MIC [5]: >128 µg/mL | MIC ([6]; CAMB, 18 h, 37 °C, n = 4): >128 µg/mL | MIC ([7]; CAMB, 18 h, 37 °C, n = 4): >128 µg/mL | MIC [8]: 32 µg/mL (≈ 7.46 µM) | MIC [9]: >128 µg/mL | MIC ([10]; CAMB, 18 h, 37 °C, n = 4): 16 µg/mL (≈ 3.73 µM) | MIC (Canida albicans FH2173): >128 µg/mL | MIC (S. aureus ATCC 33592; CAMB, 18 h, 37 °C, n = 4): 16 µg/mL (≈ 3.73 µM)

GFLKKVGKKLEGASDLTRDATIQTIAVAQAAANVAATAKQ-NH2 [EtCec3-NH2]
NOEC (HepG2 cells): > 1622 µg/mL | MIC (E. coli RKI 131/08): >1024 µg/mL | MIC (Escherichia coli D31): 128 µg/mL | MIC ([4]; DSM 30104, 18 h): >1024 µg/mL | MIC ([6]; ATCC 27853, 18 h): >1024 µg/mL | MIC ([7]; ATCC 19606, 18 h): >1024 µg/mL | MIC ([10]; ATCC 25923, 18 h): >1024 µg/mL | IC50 [11]: > 30 µM | MIC (K. pneumoniae RKI 93/10): >1024 µg/mL | MIC (A. baumannii RKI 19/09): >1024 µg/mL | MIC (S. aureus ATCC 33592; ATCC 33592, 18 h): >1024 µg/mL
